# Where a name gives a salt, the structure may show the parent alone.
# Tests used:
# [1] = test system: Sato lung carcinoma (SLC); test: Anti-tumor effect against tumor grown in the transparent chamber; assay type: in vivo, rat; conditions: 10 mg/kg, tail vein, Donryu rats; state maintained for 48 hours after treatment
# Procedure: (§1) Donryu rats (Crj-Donryu; supplied by Charles River Japan, Inc.), male.
# (§2) Rat lung carcinoma, Sato lung carcinoma (SLC)
# (§3) MTPVS powder was dissolved in physiological saline to a final concentration of 10 mg/ml. The solution (10 mg/kg) was administered through the tail vein of rats. Pentobarbital salt (Nembutal; manufactured by Abbott Laboratories) and enflurane (Ethrane; manufactured by Abbott Laboratories) was used as an anesthesia. Pentobarbital was intramuscularly administered at a dose of 25 mg/kg, 10 minutes prior to the experiment, and a suitable amount thereof was additionally administered at intervals of 90 minutes to maintain anesthesia during the experiment. The concentration of enflurane was maintained at 1% (1 L/min) using an anesthesia device for small animals.
# The change of the tumor blood flow (hereinafter referred to as “TBF”) was observed through a biomicroscope. The dorsal skin of the rat was held with a transparent chamber under sterile conditions, and a small fragment of tumor was implanted thereon. […]
# MTPVS used in a test group was administered through the tail vein by infusion pump. […] The blood vessels of tumor in the chamber were visualized with a halogen lump of 12 V and 100 W. The images of the microscope were recorded using a CCD video camera (CS-900; manufactured by Olympus Corporation), a television monitor and an S-VHS video recorder. […]
# [2] = test system: arteriole supplying nutrients to the tumor / tumor blood flow (SLC tumor); test: Biomicroscopic observation of the change of tumor microcirculation; assay type: in vivo, rat; conditions: intravenous 10 mg/kg
# Procedure: as §1, §2, §3
# The change of the tumor blood flow (hereinafter referred to as “TBF”) was observed through a biomicroscope. The dorsal skin of the rat was held with a transparent chamber under sterile conditions, and a small fragment of tumor was implanted thereon. After the tumor started to grow thereto, the rat was tested as described in Jpn. J. Cancer Res. 81: 279-288, 1990, which is incorporated herein by reference. The chamber comprises two titanium flames of the same shape each having a circular quartz glass window with a thickness of 300 μm. After anesthesia, the rat with the chamber was put on a stage heated at 34.5° C. in the microscope.
# MTPVS used in a test group was administered through the tail vein by infusion pump. […] and histological changes of tumor were directly observed through an optical microscope (Eclipse E800; manufactured by Nikon Corporation) with an eye lens of 10× and an object glass of 2× to 20×. The blood vessels of tumor in the chamber were visualized with a halogen lump of 12 V and 100 W. The images of the microscope were recorded using a CCD video camera (CS-900; manufactured by Olympus Corporation), a television monitor and an S-VHS video recorder.
# At this time, in the blood vessel on the peripheral portion of the tumor, the plasma concentration was decreased, and large quantities of red blood cells were retained. These red blood cells were hemolyzed within 2 to 3 hours after MTPVS administration to form clog.
# An inserted section on the left upper portion in FIG. 4 is an enlarged view of the blood vessels on the peripheral portion of the tumor. FIGS. 1 to 4 are based on photographs taken (length of a bar: 500 μm) by using an eye lens of 10× and an object glass of 4×. The inserted section is based on a photograph taken (length of a bar: 50 μm) by using an eye lens of 10× and an object glass of 20×.
structure (smiles),measurement,setting,value
"COc1ccc(/C=C\c2cc(OC)c(OC)c(OC)c2)cc1NC(=O)[C@@H](N)CO [MTPVS, (Z)-N-[2-methoxy-5-[2-(3,4,5-trimethoxyphenyl)vinyl]phenyl]-L-serinamide hydrochloride]",time to necrosis of SLC tumor grown in the transparent chamber,[1],≤ 25 h
same,restoration of tumor blood flow after clog and hemolysis,[2],no longer restored
same,time at which tumor blood flow stopped almost completely,[2]; after administration,30 min
same,time to hemolysis of retained red blood cells in blood vessel on peripheral portion of the tumor (clog formation),[2]; after administration,2 to 3 hours
same,blood vessel structure in the normal tissues,[2]; normal tissues,maintained as normal
same,contraction of the arteriole supplying nutrients to the tumor,[2]; rat SLC tumor in transparent chamber,markedly contracted

# — patent US20070264198A1, “TUMOR NECROSIS AGENT” (Ajinomoto Co., Inc., priority 2001, published 2007)
